This is an account of results in BindingDB's records for doi:10.1016/j.chembiol.2009.09.012 (University of California Irvine, 2009).

The assay concerns the target T1, Monoglyceride lipase (Rattus norvegicus, UniProt Q8R431).
T1 sequence (Q8R431 whole entry): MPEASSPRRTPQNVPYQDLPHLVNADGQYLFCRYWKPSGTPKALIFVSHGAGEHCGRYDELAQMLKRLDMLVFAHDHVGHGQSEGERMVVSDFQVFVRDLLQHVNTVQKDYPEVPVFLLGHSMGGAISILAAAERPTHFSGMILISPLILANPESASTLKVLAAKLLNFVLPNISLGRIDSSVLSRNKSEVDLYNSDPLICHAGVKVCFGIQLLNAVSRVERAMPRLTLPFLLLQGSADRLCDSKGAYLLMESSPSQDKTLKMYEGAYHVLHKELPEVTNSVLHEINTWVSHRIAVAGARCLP
The assay can be described thus: Enzyme Assay. As to conditions: 37 °C. As to the method: Purified recombinant rat MGL was prepared and enzyme activity was assayed.
With `C=c1c(O)c(O)cc2c1=CC=C1[C@@]2(C)CC[C@@]2(C)C3C[C@](C)(C(=O)OC)CC[C@]3(C)CC[C@]12C` (stereo not given in full) [Pristimerin], the IC50 (in general, the midpoint of a concentration-inhibition curve) turned out to be 0.093 µM. This lies in the double-digit nanomolar range. In turn, `C=c1c(O)c(O)cc2c1=CC=C1[C@@]2(C)CC[C@@]2(C)[C@@H]3C[C@](C)(C(=O)O)CC[C@]3(C)CC[C@]12C` displayed a concentration for half-maximal inhibition (IC50) of 1.6 µM. With `Cc1c(O)c(O)cc2c1CC=C1[C@@]2(C)CC[C@@]2(C)C3C[C@](C)(C(=O)O)CC[C@]3(C)CC[C@]12C` (stereo not given in full) [Dihydrocelastrol] the figure was 15 µM; with `COC(=O)[C@]1(C)CC[C@]2(C)CC[C@]3(C)C4=CCc5c(cc(O)c(O)c5C)[C@]4(C)CC[C@@]3(C)C2C1` (stereo not given in full) [Pristimerol], 4 µM; with `CC(=O)Oc1cc2c(c(C)c1OC(C)=O)CC=C1[C@@]2(C)CC[C@@]2(C)[C@@H]3C[C@](C)(C(=O)O)CC[C@]3(C)CC[C@]12C` [Dihydrocelastryl diacetate], 15 µM.
